We go through 22 compounds from patent publication US9212178B2, “Substituted pyrimidine compounds and their use as SYK inhibitors” (Genosco, priority 2013, dated 2015).

One experiment deals with full-length human SYK (Homo sapiens (Human), UniProt P43405). Nature of the experiment: Inhibition of enzymatic SYK kinase activity (LANCE Ulight TK peptide). Format: biochemical. To be noted: ATP at Km (15 uM), 30 min pre-incubation. How it is done:
Compounds of the present invention were assayed to measure their capacity to inhibit a spleen tyrosine kinase (SYK).
Compounds of the invention were initially diluted to 10 mM in 100% DMSO (CALBIOCHEM™) for storage and made into kinase buffer solution to create a compound concentration ranging from 1 uM and 10 uM. Serial dilutions of compounds of the invention were dispensed into a 96-well plate (GREINER BIOSCIENCES™) at 6 μL each. Purified full-length human SYK (CARNA BIOSCIENCES™) were diluted in kinase buffer and added to the compound solutions and pre-incubated for 30 minutes at room temperature. […] The reaction mixture was incubated for 1 hour. Following the incubation, the stop solution made with EDTA, water, and Lance detection buffer ([…]™) was added (12 μL each) to stop phosphorylation.
For orientation: TR-FRET usually uses a lanthanide donor and a delayed reading to cut background.

In another experiment the test system is THP-1 cells. Nature of the experiment: SYK-dependent TNF-α release assay (IgG stimulation), ELISA. Format: cell-based. To be noted: THP-1 cells on human IgG-coated plate, 18 hours; read-out: TNF-α release inhibition, IgG stimulation IC50. How it is done:
In order to address cellular potency of Compounds of Formula (I), TNF-a production was measured on treatment of a series of concentration of SYK inhibitor in THP-1 cells.
For SYK-dependent TNF-α release assay (i.e., via IgG stimulation), THP-1 cells derived from human monocytic cells were obtained from the American Type Culture Collection (ATCC, Manassas, Va.). This cell line was maintained with a Roswell Park Memorial Institute (RPMI) medium (GIBCO) containing 10% fetal bovine serum (FBS; GIBCO) and 0.05 mM solution of 2-mercaptoethanol. The THP-1 cells were seeded at 1×10^5 cells/100 μL/well into human IgG (10 ng/well, INVITROGEN)-coated 96 well culture plate, and serially diluted compound was then added. After an 18 hours of incubation period at 37° C., supernatants were collected for the determination of the TNF-α level by enzyme-linked immunosorbent assay (ELISA), and the remaining cells were subjected to an MTT (yellow tetrazolium salt) assay to determine the cytotoxic effects of the compound. The IC50 value of the test compound was calculated at Gradpad Prism 5 unless otherwise specified.
(An ELISA detects its analyte on a solid surface through an enzyme-linked reagent.)

As a reminder, the IC50 is the midpoint of a concentration-inhibition curve. As for `Cc1nn(-c2ccnc(Nc3ccc4c(c3)c(C(=O)C(C)C)cn4C)n2)cc1CN1C[C@H](O)CO1` [Compound 2, (S)-1-(5-(4-(4-((4-hydroxyisoxazolidin-2-yl)methyl)-3-methyl-1H-pyrazol-1-yl)pyrimidin-2-ylamino)-1-methyl-1H-indol-3-yl)-2-methylpropan-1-one], the IC50 against full-length human SYK came out at 0.00863 µM; in the experiment on THP-1 cells, 0.067 µM.

On to `Cc1nn(-c2ccnc(Nc3ccc4c(c3)c(C(=O)C(F)(F)F)cn4C)n2)cc1CN1C[C@H](O)CO1` [Compound 3, (S)-2,2,2-trifluoro-1-(5-(4-(4-((4-hydroxyisoxazolidin-2-yl)methyl)-3-methyl-1H-pyrazol-1-yl)pyrimidin-2-ylamino)-1-methyl-1H-indol-3-yl)ethanone], for which the results for the IC50 at full-length human SYK and in the experiment with THP-1 cells were 0.00282 µM and 0.048 µM, respectively.

As to `Cc1nn(-c2ccnc(Nc3ccc4c(c3)c(C(=O)C(F)F)cn4C)n2)cc1CN1C[C@H](O)CO1` [Compound 4, (S)-2,2-difluoro-1-(5-(4-(4-((4-hydroxyisoxazolidin-2-yl)methyl)-3-methyl-1H-pyrazol-1-yl)pyrimidin-2-ylamino)-1-methyl-1H-indol-3-yl)ethanone], the IC50 against full-length human SYK amounted to 0.00942 µM; with THP-1 cells, 0.045 µM.

Regarding `CCOC(=O)n1cc(C(C)=O)c2cc(Nc3nccc(-n4cc(CN5C[C@H](O)CO5)c(C)n4)n3)ccc21` [Compound 5, (S)-ethyl 3-acetyl-5-(4-(4-((4-hydroxyisoxazolidin-2-yl)methyl)-3-methyl-1H-pyrazol-1-yl)pyrimidin-2-ylamino)-1H-indole-1-carboxylate], in the experiment with THP-1 cells, the IC50 was 0.293 µM.

`Cc1nn(-c2ccnc(Nc3ccc4[nH]cc(C(=O)C(F)(F)F)c4c3)n2)cc1CN1C[C@H](O)CO1` [Compound 7, (S)-2,2,2-trifluoro-1-(5-(4-(4-((4-hydroxyisoxazolidin-2-yl)methyl)-3-methyl-1H-pyrazol-1-yl)pyrimidin-2-ylamino)-1H-indol-3-yl)ethanone]: the figures for the IC50 against full-length human SYK and in the experiment with THP-1 cells were 0.00828 µM and 0.06 µM, respectively.

As for `Cc1nn(-c2ccnc(Nc3ccc4c(c3)c(C(=O)C3CC3)cn4C(C)C)n2)cc1CN1C[C@H](O)CO1` [Compound 8, (S)-cyclopropyl(5-(4-(4-((4-hydroxyisoxazolidin-2-yl)methyl)-3-methyl-1H-pyrazol-1-yl)pyrimidin-2-ylamino)-1-isopropyl-1H-indol-3-yl)methanone], the IC50 is 0.00737 µM on full-length human SYK and 0.097 µM in the experiment with THP-1 cells.

`CC(=O)c1cn(C)c2ccc(Nc3nccc(-n4cc(CN5C[C@H](O)CO5)c(C)n4)n3)cc12` [Compound 9, (S)-1-(5-(4-(4-((4-hydroxyisoxazolidin-2-yl)methyl)-3-methyl-1H-pyrazol-1-yl)pyrimidin-2-ylamino)-1-methyl-1H-indol-3-yl)ethanone]: the results for the half-maximal inhibitory concentration (IC50) against full-length human SYK and with THP-1 cells were 0.0133 µM and 0.229 µM, respectively.

Regarding `Cc1nn(-c2ccnc(Nc3ccc4c(c3)c(C(=O)C(F)F)cn4C)n2)cc1CN1C[C@@H](O)CO1` [Compound 10, (R)-2,2-difluoro-1-(5-(4-(4-((4-hydroxyisoxazolidin-2-yl)methyl)-3-methyl-1H-pyrazol-1-yl)pyrimidin-2-ylamino)-1-methyl-1H-indol-3-yl)ethanone], the IC50 against full-length human SYK is 0.0244 µM.

As to `CCn1cc(C(=O)C2CC2)c2cc(Nc3nccc(-n4cc(CN5C[C@@H](O)CO5)c(C)n4)n3)ccc21` [Compound 11, (R)-cyclopropyl(1-ethyl-5-(4-(4-((4-hydroxyisoxazolidin-2-yl)methyl)-3-methyl-1H-pyrazol-1-yl)pyrimidin-2-ylamino)-1H-indol-3-yl)methanone], the half-inhibitory concentration (IC50) on full-length human SYK was found to be 0.00628 µM; in the experiment on THP-1 cells, 0.089 µM.

In the case of `Cc1nn(-c2ccnc(Nc3ccc4[nH]cc(C(=O)C5CC5)c4c3)n2)cc1CN1C[C@H](O)CO1` [Compound 12, (S)-cyclopropyl(5-(4-(4-((4-hydroxyisoxazolidin-2-yl)methyl)-3-methyl-1H-pyrazol-1-yl)pyrimidin-2-ylamino)-1H-indol-3-yl)methanone], the 50% inhibitory concentration (IC50) turned out to be 0.0135 µM at full-length human SYK and 0.12 µM in the experiment with THP-1 cells.

`CCn1cc(C(=O)C2CC2)c2cc(Nc3nccc(-n4cc(CN5CC(C)(O)CO5)c(C)n4)n3)ccc21` (centres unmarked) [Compound 13, cyclopropyl(1-ethyl-5-(4-(4-((4-hydroxy-4-methylisoxazolidin-2-yl)methyl)-3-methyl-1H-pyrazol-1-yl)pyrimidin-2-ylamino)-1H-indol-3-yl)methanone]: the half-inhibitory concentration (IC50) is 0.0173 µM against full-length human SYK and 0.273 µM in the experiment on THP-1 cells.

For `Cc1nn(-c2ccnc(Nc3ccc4c(c3)c(C(=O)C3CC3)cn4C)n2)cc1CN1CC(C)(O)CO1` (centres unmarked) [Compound 14, cyclopropyl(5-(4-(4-((4-hydroxy-4-methylisoxazolidin-2-yl)methyl)-3-methyl-1H-pyrazol-1-yl)pyrimidin-2-ylamino)-1-methyl-1H-indol-3-yl)methanone], the IC50 against full-length human SYK was found to be 0.0417 µM; in the experiment on THP-1 cells, 0.789 µM.

For `Cc1nn(-c2ccnc(Nc3ccc4c(c3)c(C(=O)C3CC3)cn4CC(F)(F)F)n2)cc1CN1C[C@H](O)CO1` [Compound 15, (S)-cyclopropyl(5-(4-(4-((4-hydroxyisoxazolidin-2-yl)methyl)-3-methyl-1H-pyrazol-1-yl)pyrimidin-2-ylamino)-1-(2,2,2-trifluoroethyl)-1H-indol-3-yl)methanone], the IC50 amounted to 0.00298 µM against full-length human SYK and 0.066 µM in the experiment with THP-1 cells.

With `Cc1nn(-c2ccnc(Nc3ccc4c(c3)c(C(=O)C3CC3)cn4CC(F)(F)F)n2)cc1CN1CC(C)(O)CO1` (centres unmarked) [Compound 16, cyclopropyl(5-(4-(4-((4-hydroxy-4-methylisoxazolidin-2-yl)methyl)-3-methyl-1H-pyrazol-1-yl)pyrimidin-2-ylamino)-1-(2,2,2-trifluoroethyl)-1H-indol-3-yl)methanone], the figures for the half-inhibitory concentration (IC50) against full-length human SYK and with THP-1 cells were 0.0142 µM and 0.226 µM, respectively.

At full-length human SYK, `Cc1nn(-c2nc(Nc3ccc4c(c3)c(C(=O)C(F)(F)F)cn4C)ncc2Cl)cc1CN1C[C@H](O)CO1` [Compound 17, (S)-1-(5-(5-chloro-4-(4-((4-hydroxyisoxazolidin-2-yl)methyl)-3-methyl-1H-pyrazol-1-yl)pyrimidin-2-ylamino)-1-methyl-1H-indol-3-yl)-2,2,2-trifluoroethanone] registered a half-maximal inhibitory concentration (IC50) of 0.132 µM.

At full-length human SYK, `Cc1cnc(Nc2ccc3c(c2)c(C(=O)C(F)(F)F)cn3C)nc1-n1cc(CN2C[C@H](O)CO2)c(C)n1` [Compound 18, (S)-2,2,2-trifluoro-1-(5-(4-(4-((4-hydroxyisoxazolidin-2-yl)methyl)-3-methyl-1H-pyrazol-1-yl)-5-methylpyrimidin-2-ylamino)-1-methyl-1H-indol-3-yl)ethanone] had an IC50 of 0.159 µM.

For `Cc1cnc(Nc2ccc3c(c2)c(C(=O)C2CC2)cn3C)nc1-n1cc(CN2C[C@H](O)CO2)c(C)n1` [Compound 19, (S)-cyclopropyl(5-(4-(4-((4-hydroxyisoxazolidin-2-yl)methyl)-3-methyl-1H-pyrazol-1-yl)-5-methylpyrimidin-2-ylamino)-1-methyl-1H-indol-3-yl)methanone], the half-inhibitory concentration (IC50) turned out to be 0.271 µM at full-length human SYK and 0.821 µM in the experiment on THP-1 cells.

Compound `CCn1cc(C(=O)C2CC2)c2cc(Nc3ncc(F)c(-n4cc(CN5C[C@H](O)CO5)c(C)n4)n3)ccc21` [Compound 20, (S)-cyclopropyl(1-ethyl-5-(5-fluoro-4-(4-((4-hydroxyisoxazolidin-2-yl)methyl)-3-methyl-1H-pyrazol-1-yl)pyrimidin-2-ylamino)-1H-indol-3-yl)methanone] gave a half-inhibitory concentration (IC50) against full-length human SYK of 0.0662 µM.

In turn, `CCn1cc(C(=O)C2CC2)c2cc(Nc3ncc(C)c(-n4cc(CN5C[C@H](O)CO5)c(C)n4)n3)ccc21` [Compound 22, (S)-cyclopropyl(1-ethyl-5-(4-(4-((4-hydroxyisoxazolidin-2-yl)methyl)-3-methyl-1H-pyrazol-1-yl)-5-methylpyrimidin-2-ylamino)-1H-indol-3-yl)methanone] came in with an IC50 at full-length human SYK of 0.0793 µM.

On full-length human SYK, `Cc1nn(-c2ccnc(Nc3ccc4c(c3)c(C(=O)C3CC3)cn4C)n2)cc1CN1CC(C)(O)CCO1` (centres unmarked) [Compound 28] had an IC50 of 0.106 µM.

With `Cc1nn(-c2ccnc(Nc3ccc4c(c3)c(Cl)c(C)n4C)n2)cc1CN1C[C@H](O)CO1` [Compound 31, (S)-2-((1-(2-(3-chloro-1,2-dimethyl-1H-indol-5-ylamino)pyrimidin-4-yl)-3-methyl-1H-pyrazol-4-yl)methyl)isoxazolidin-4-ol], in the experiment on THP-1 cells, the half-maximal inhibitory concentration (IC50) was 0.197 µM.

“(S)-cyclopropyl(1-ethyl-5-(5-fluoro-4-(3-((4-hydroxyisoxazolidin-2-yl)methyl)-4-methyl-1H-pyrrol-1-yl)pyrimidin-2-ylamino)-1H-indol-3-yl)methanone [Compound 21]” returned a concentration for half-maximal inhibition (IC50) against full-length human SYK of 0.23 µM.
